According to patent US10940139B2, “Compounds that interact with the Ras superfamily for the treatment of cancers, inflammatory diseases, rasopathies, and fibrotic disease” (Shy Therapeutics LLC, priority 2017, dated 2021):

Tests used:
[1] = tested on: TNFα production in RAW 264.7 macrophage cell line; assay: Mouse TNF alpha quantification assay (LPS-stimulated macrophages, ELISA); format: cell-based; conditions: RAW264.7, RAW 264.7 murine leukemia virus transformed macrophage cell lines, LPS stimulation, read-out: TNF-α % Inhibition at 30 μM
[2] = tested on: IL6 production in RAW 264.7 macrophage cell line; assay: Mouse IL6 quantification assay (LPS-stimulated macrophages, ELISA); format: cell-based; conditions: RAW264.7, RAW 264.7 murine leukemia virus transformed macrophage cell lines, LPS stimulation, read-out: IL-6 % Inhibition at 30 μM

| SMILES | inhibition at 30 µM [1] [%] | inhibition at 30 µM [2] [%] |
| --- | --- | --- |
| O=C(c1csc2c(O)nc(-c3ccccn3)nc12)N1CCNC(c2ccc(O)cc2)C1 (stereo not drawn) [drawing 2218] | 0 | 1 to 25 |
| COCCCCNC(=O)c1csc2nc(-c3ccccn3)nc(N3CCS(=O)(=O)CC3)c12 [drawing 2219] | 0 | 26 to 50 |
| Cc1cnc(-c2ccccn2)nc1NC(=O)C1CCCc2cc(C#N)ccc21 (stereo not drawn) [drawing 2220] | 51 to 75 | 76 to 100 |
| O=C(COCc1ccncc1)Nc1nc(-c2ccccn2)nc2sccc12 [drawing 2221] | 1 to 25 | 76 to 100 |
| O=C(COCc1cccnc1)Nc1nc(-c2ccccn2)nc2sccc12 [drawing 2222] | 1 to 25 | 51 to 75 |
| COc1cccc(CC2CN(C(=O)c3csc4c(O)nc(-c5ccccn5)nc34)CCN2)c1 (stereo not drawn) [drawing 2223] | 1 to 25 | 1 to 25 |
| O=C(c1csc2c(O)nc(-c3ccccn3)nc12)N1CCNC(Cc2ccc(F)cc2)C1 (stereo not drawn) [drawing 2224] | 1 to 25 | 26 to 50 |
| COc1ccnc(-c2nc(O)c3c(C(F)(F)F)csc3n2)c1 [drawing 2226] | 1 to 25 | 51 to 75 |
| Nc1nc(-c2ccccn2)nc2ccsc12 [drawing 2227] | 1 to 25 | 0 |
| Nc1nc(-c2ccccn2)nc2c(-c3ccccc3Cl)csc12 [drawing 2228] | 1 to 25 | 76 to 100 |
| Cc1cc2nc(-c3ccccn3)nc(N)c2s1 [drawing 2229] | 1 to 25 | 1 to 25 |
| Cc1sc2c(N)nc(-c3ccccn3)nc2c1-c1ccccc1 [drawing 2230] | 1 to 25 | 51 to 75 |
| O=C(c1csc2c(O)nc(-c3ccccn3)nc12)N1CC2CC1CN2c1ccccc1 (stereo not drawn) [drawing 2231] | 0 | 51 to 75 |
| O=C(c1csc2c(O)nc(-c3ccccn3)nc12)N1CCC(c2ccncc2)C1 (stereo not drawn) [drawing 2232] | 1 to 25 | 76 to 100 |
| O=C(c1csc2c(O)nc(-c3ccccn3)nc12)N1CCC(c2cccc(O)c2)C1 (stereo not drawn) [drawing 2233] | 26 to 50 | 76 to 100 |
| O=C(c1cc2nc(-c3ccccn3)nc(O)c2s1)N1CCN(c2ccccc2)CC1 [drawing 2234] | 0 | 26 to 50 |
| O=C(c1cc2nc(-c3ccccn3)nc(O)c2s1)N1CCOC(c2ccccc2)C1 (stereo not drawn) [drawing 2235] | 1 to 25 | 1 to 25 |
| O=C(NCCc1cccnc1)c1cc2nc(-c3ccccn3)nc(O)c2s1 [drawing 2236] | 1 to 25 | 26 to 50 |
| Cc1ccc(OC2CCCC2)c(-c2csc3c(O)nc(-c4ccccn4)nc23)c1 [drawing 2237] | 51 to 75 | 76 to 100 |
| CN(C)Cc1ccc(-c2csc3c(O)nc(-c4ccccn4)nc23)cc1F [drawing 2238] | 51 to 75 | 76 to 100 |
| COCc1ccc(-c2csc3c(O)nc(-c4ccccn4)nc23)cc1F [drawing 2239] | 51 to 75 | 76 to 100 |
| CC(C)(C)c1ccc(-c2csc3c(O)nc(-c4ccccn4)nc23)cc1 [drawing 2240] | 76 to 100 | 76 to 100 |

| SMILES | inhibition at 30 µM [1] [%] | inhibition at 30 µM [2] [%] |
| --- | --- | --- |
| Oc1nc(-c2ccccn2)nc2c(-c3cc(Cl)cc(Cl)c3)csc12 [drawing 2241] | 1 to 25 | 0 |
| Oc1nc(-c2ccccn2)nc2c(-c3cccc4c3OCO4)csc12 [drawing 2242] | 51 to 75 | 51 to 75 |
| O=C(O)c1cc2nc(-c3ccccn3)nc(O)c2s1 [drawing 2243] | 1 to 25 | 1 to 25 |
| Oc1nc(-c2ccccn2)nc2sc3c(c12)CCNC3 [drawing 2244] | 26 to 50 | 26 to 50 |
| Oc1nc(-c2ccccn2)nc2sc3c(c12)CCCNC3 [drawing 2245] | 1 to 25 | 1 to 25 |
| COc1ccc(CCNC(=O)c2csc3nc(-c4ccccn4)nc(N4CCS(=O)(=O)CC4)c23)cn1 [drawing 2246] | 0 | 26 to 50 |
| O=C(NCCc1cnc(O)nc1)c1csc2nc(-c3ccccn3)nc(N3CCS(=O)(=O)CC3)c12 [drawing 2247] | 0 | 51 to 75 |
| N#Cc1ccc2c(c1)CCCC2C(=O)Nc1ccnc(-c2ccccn2)n1 (stereo not drawn) [drawing 2248] | 0 | 1 to 25 |
| Cc1cnc(-c2ccccn2)nc1NC(=O)Cc1ccc2cnccc2c1 [drawing 2249] | 0 | 76 to 100 |
| O=C(COCc1ccnc(O)c1)Nc1nc(-c2ccccn2)nc2sccc12 [drawing 2250] | 0 | 26 to 50 |
| Nc1nc(-c2ccccn2)nc2c(-c3ccccc3)csc12 [drawing 2251] | 51 to 75 | 76 to 100 |
| Oc1nc(-c2ccccn2)nc2c(-c3cc(F)ccc3OC(F)F)csc12 [drawing 2252] | 26 to 50 | 76 to 100 |
| Cn1nnc2ccc(-c3csc4c(O)nc(-c5ccccn5)nc34)cc21 [drawing 2253] | 1 to 25 | 76 to 100 |
| Oc1nc(-c2ccccn2)nc2c(-c3ccc(OC4CCOC4)cc3)csc12 (stereo not drawn) [drawing 2254] | 26 to 50 | 76 to 100 |
| Oc1nc(-c2ccccn2)nc2c(-c3ccc(OC4CCCC4)cc3)csc12 [drawing 2255] | 0 | 76 to 100 |
| O=S1(=O)CCN(Cc2cccc(-c3csc4c(O)nc(-c5ccccn5)nc34)c2)CC1 [drawing 2256] | 1 to 25 | 76 to 100 |
| Oc1nc(-c2ccccn2)nc2c(-c3ccc(C4CCC4)cc3)csc12 [drawing 2257] | 0 | 51 to 75 |
| Oc1nc(-c2ccccn2)nc2c(-c3ccccc3OC3CCCCC3)csc12 [drawing 2258] | 26 to 50 | 76 to 100 |
| Oc1nc(-c2ccccn2)nc2c(-c3ccc(OC4CCOCC4)cc3)csc12 [drawing 2259] | 0 | 76 to 100 |
| Oc1nc(-c2ccccn2)nc2c(-c3ccccc3F)csc12 [drawing 2260] | 51 to 75 | 76 to 100 |
| COc1cc(C)c(-c2csc3c(O)nc(-c4ccccn4)nc23)cc1C [drawing 2261] | 0 | 51 to 75 |
| COc1ccccc1-c1csc2c(O)nc(-c3ccccn3)nc12 [drawing 2262] | 51 to 75 | 76 to 100 |

| SMILES | inhibition at 30 µM [1] [%] | inhibition at 30 µM [2] [%] |
| --- | --- | --- |
| Oc1nc(-c2ccccn2)nc2c(-c3ccc(F)cc3F)csc12 [drawing 2263] | 26 to 50 | 76 to 100 |
| COc1cccc(-c2csc3c(O)nc(-c4ccccn4)nc23)c1 [drawing 2264] | 26 to 50 | 76 to 100 |
| Oc1nc(-c2ccccn2)nc2c(-c3cccc(C(F)(F)F)c3)csc12 [drawing 2265] | 76 to 100 | 76 to 100 |
| COc1ccc(F)cc1-c1csc2c(O)nc(-c3ccccn3)nc12 [drawing 2266] | 26 to 50 | 76 to 100 |
| Oc1nc(-c2ccccn2)nc2c(-c3ccsc3)csc12 [drawing 2267] | 76 to 100 | 76 to 100 |
| Oc1nc(-c2ccccn2)nc2c(-c3ccc(OC(F)F)cc3F)csc12 [drawing 2268] | 26 to 50 | 76 to 100 |
| CC(C)COc1ccc(-c2csc3c(O)nc(-c4ccccn4)nc23)cn1 [drawing 2269] | 51 to 75 | 76 to 100 |
| Cc1cc(OC(F)F)ccc1-c1csc2c(O)nc(-c3ccccn3)nc12 [drawing 2270] | 0 | 76 to 100 |
| Oc1nc(-c2ccccn2)nc2c(-c3ccc4c(c3)OCO4)csc12 [drawing 2271] | 76 to 100 | 76 to 100 |
| CC(C)(O)c1ccc(-c2csc3c(O)nc(-c4ccccn4)nc23)c(F)c1 [drawing 2272] | 76 to 100 | 76 to 100 |
| COc1ccc(-c2csc3c(O)nc(-c4ccccn4)nc23)c(C)c1 [drawing 2273] | 76 to 100 | 76 to 100 |
| Oc1nc(-c2ccccn2)nc2c(-c3ccc(CN4CCOCC4)cc3)csc12 [drawing 2274] | 0 | 26 to 50 |
| Oc1nc(-c2ccccn2)nc2c(-c3ccccc3C(F)F)csc12 [drawing 2275] | 76 to 100 | 76 to 100 |
| COc1cc(-c2csc3c(O)nc(-c4ccccn4)nc23)cnc1C(F)(F)F [drawing 2276] | 1 to 25 | 51 to 75 |
| CNC(=O)c1ccc(-c2csc3c(O)nc(-c4ccccn4)nc23)cc1C [drawing 2277] | 0 | 26 to 50 |
| OCC1(c2ccc(-c3csc4c(O)nc(-c5ccccn5)nc34)cc2)CC1 [drawing 2278] | 1 to 25 | 76 to 100 |
| Oc1nc(-c2ccccn2)nc2c(-c3ccc(OC4CCCCC4)cc3)csc12 [drawing 2279] | 76 to 100 | 76 to 100 |
| Cc1cnccc1-c1csc2c(O)nc(-c3ccccn3)nc12 [drawing 2280] | 26 to 50 | 76 to 100 |
| O=C(CCn1ccnc1)Nc1nc(-c2ccccn2)nc2sccc12 [drawing 2281] | 0 | 51 to 75 |
| O=C(CCc1nn[nH]n1)Nc1nc(-c2ccccn2)nc2sccc12 [drawing 2282] | 0 | 1 to 25 |
| O=C(CCc1cncnc1)Nc1nc(-c2ccccn2)nc2sccc12 [drawing 2283] | 0 | 26 to 50 |
| Nc1nc(-c2ccccn2)nc2c(Br)csc12 [drawing 2284] | 0 | 26 to 50 |
